In patent US7074789B2, “Kinase inhibitors” (Amgen Inc., priority 1999, dated 2006):
Read-outs that look alike come from different tables or passages of the source.

Columns and labels:
Type in all cases: biochemical
[1] = target: T1, EGFR (Homo sapiens, UniProt P00533); assay: Kinase inhibition assay (33P transfer), EGFR; details: Table 2, kinase inhibition class; read-out: EGFR-1
T1 construct: Kinases are expressed as either kinase domains or full length constructs; made in house
Summary of the method: (§1)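 Recombinant kinase domains or full-length GST- or His-tagged constructs, from E. coli or baculovirus/High Five cells, sometimes with regulatory polypeptides. Transfer of 33P from ATP to plate-bound poly(Glu,Tyr) 4:1 or poly(Arg,Ser) 3:1 counted by liquid scintillation after phosphoric acid wash; IC50 is the concentration halving incorporation.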

[2] = target: T2, AKT (Homo sapiens, UniProt Q9Y243); assay: Kinase inhibition assay (33P transfer), AKT; details: Table 2, kinase inhibition class; read-out: AKT3-1
T2 construct: Kinases are expressed as either kinase domains or full length constructs; made in house
Summary of the method: (§2)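 Filterless plate radiometric format: immobilized poly(Glu,Tyr) 4:1 or poly(Arg,Ser) 3:1, 33P-labelled ATP, tagged recombinant kinase (some with regulatory partners). Incorporated label counted after phosphoric acid wash.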

[3] = target: T3, IGFR-1 (Homo sapiens, UniProt P08069); assay: Kinase inhibition assay, IGFR-1 (Table 2); details: Table 2, kinase inhibition class
T3 construct: Kinases are expressed as either kinase domains or full length constructs; made in house

[4] = target: T4, Itk (Homo sapiens, UniProt Q08881); assay: Kinase inhibition assay (33P transfer), Itk; details: read-out: Itk-1
T4 construct: Kinases are expressed as either kinase domains or full length constructs; made in house
T4 sequence (Q08881 1-620): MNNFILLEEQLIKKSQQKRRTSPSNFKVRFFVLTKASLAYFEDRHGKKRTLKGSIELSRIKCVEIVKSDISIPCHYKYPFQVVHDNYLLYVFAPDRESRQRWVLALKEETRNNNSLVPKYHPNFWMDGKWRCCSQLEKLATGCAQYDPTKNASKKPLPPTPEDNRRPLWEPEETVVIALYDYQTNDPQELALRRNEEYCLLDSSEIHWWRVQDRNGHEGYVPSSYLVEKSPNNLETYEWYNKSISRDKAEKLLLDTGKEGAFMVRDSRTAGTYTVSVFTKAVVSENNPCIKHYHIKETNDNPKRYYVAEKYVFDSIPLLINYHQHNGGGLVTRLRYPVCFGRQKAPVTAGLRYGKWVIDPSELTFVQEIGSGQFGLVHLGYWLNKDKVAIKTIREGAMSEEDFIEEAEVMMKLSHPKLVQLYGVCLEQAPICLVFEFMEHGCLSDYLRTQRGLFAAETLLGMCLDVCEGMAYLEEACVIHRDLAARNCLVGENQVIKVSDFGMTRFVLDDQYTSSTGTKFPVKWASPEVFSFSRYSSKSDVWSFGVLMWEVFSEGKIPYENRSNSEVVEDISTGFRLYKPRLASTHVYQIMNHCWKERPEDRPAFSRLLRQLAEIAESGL
Summary of the method: as §1

[5] = target: T5, Kdr (Homo sapiens, UniProt P35968); assay: Kinase inhibition assay (33P transfer), Kdr
T5 construct: Kinases are expressed as either kinase domains or full length constructs; made in house
Summary of the method: as §2

[6] = target: T6, Lck (Homo sapiens, UniProt P06239); assay: Kinase inhibition assay (33P transfer), Lck; details: read-out: Lck-1
T6 construct: Kinases are expressed as either kinase domains or full length constructs; made in house
Summary of the method: as §2

[7] = target: T7, ErbB2 (Homo sapiens, UniProt P04626); assay: Kinase inhibition assay (33P transfer), ErbB2; details: read-out: ErbB2-2
T7 construct: Kinases are expressed as either kinase domains or full length constructs; made in house
Summary of the method: as §1

[8] = target: T8, PDGFRB (Homo sapiens, UniProt P09619); assay: Kinase inhibition assay (33P transfer), PDGFRB; details: read-out: PDGFRB-1
T8 construct: Kinases are expressed as either kinase domains or full length constructs; made in house

[9] = target: T9, c-Met (Homo sapiens, UniProt P08581); assay: Kinase inhibition assay (33P transfer), c-Met; details: Table 2, kinase inhibition class; read-out: Met-1
T9 construct: Kinases are expressed as either kinase domains or full length constructs; made in house
Summary of the method: as §1

[10] = target: T10, Zap-70 (Homo sapiens, UniProt P43403); assay: Kinase inhibition assay (33P transfer), Zap-70; details: read-out: Zap-1
T10 construct: Kinases are expressed as either kinase domains or full length constructs; made in house
T10 sequence (P43403 1-619): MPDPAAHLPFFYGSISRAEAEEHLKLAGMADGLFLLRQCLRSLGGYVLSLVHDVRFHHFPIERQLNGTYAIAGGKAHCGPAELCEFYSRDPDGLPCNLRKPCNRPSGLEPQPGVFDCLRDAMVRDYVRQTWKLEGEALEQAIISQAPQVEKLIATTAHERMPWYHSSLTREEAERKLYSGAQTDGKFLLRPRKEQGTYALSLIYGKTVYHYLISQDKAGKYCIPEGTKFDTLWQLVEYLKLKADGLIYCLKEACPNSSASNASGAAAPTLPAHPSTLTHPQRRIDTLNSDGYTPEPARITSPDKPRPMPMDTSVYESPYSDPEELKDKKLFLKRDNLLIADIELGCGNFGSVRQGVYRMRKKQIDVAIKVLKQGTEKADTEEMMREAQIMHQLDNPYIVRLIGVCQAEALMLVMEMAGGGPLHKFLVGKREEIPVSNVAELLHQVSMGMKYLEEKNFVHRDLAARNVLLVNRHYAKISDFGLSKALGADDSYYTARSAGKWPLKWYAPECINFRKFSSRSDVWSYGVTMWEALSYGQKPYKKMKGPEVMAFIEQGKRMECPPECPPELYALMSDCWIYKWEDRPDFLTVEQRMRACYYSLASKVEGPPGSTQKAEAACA
Summary of the method: as §2

T2 sequence (Q9Y243 whole entry, the tested form may be a part): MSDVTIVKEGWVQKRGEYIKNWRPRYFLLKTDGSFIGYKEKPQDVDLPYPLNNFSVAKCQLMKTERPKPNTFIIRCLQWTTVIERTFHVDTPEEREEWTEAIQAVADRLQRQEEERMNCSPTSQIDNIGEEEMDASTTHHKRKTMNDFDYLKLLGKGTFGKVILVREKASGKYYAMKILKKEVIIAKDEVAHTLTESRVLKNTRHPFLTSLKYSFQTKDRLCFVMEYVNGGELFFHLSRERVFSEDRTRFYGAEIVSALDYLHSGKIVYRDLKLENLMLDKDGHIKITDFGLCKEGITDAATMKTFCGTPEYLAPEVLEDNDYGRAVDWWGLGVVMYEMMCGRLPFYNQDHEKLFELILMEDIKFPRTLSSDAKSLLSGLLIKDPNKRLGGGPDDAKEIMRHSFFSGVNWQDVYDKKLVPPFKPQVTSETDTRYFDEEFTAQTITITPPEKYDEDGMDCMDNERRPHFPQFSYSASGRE
T3 sequence (P08069 31-1367): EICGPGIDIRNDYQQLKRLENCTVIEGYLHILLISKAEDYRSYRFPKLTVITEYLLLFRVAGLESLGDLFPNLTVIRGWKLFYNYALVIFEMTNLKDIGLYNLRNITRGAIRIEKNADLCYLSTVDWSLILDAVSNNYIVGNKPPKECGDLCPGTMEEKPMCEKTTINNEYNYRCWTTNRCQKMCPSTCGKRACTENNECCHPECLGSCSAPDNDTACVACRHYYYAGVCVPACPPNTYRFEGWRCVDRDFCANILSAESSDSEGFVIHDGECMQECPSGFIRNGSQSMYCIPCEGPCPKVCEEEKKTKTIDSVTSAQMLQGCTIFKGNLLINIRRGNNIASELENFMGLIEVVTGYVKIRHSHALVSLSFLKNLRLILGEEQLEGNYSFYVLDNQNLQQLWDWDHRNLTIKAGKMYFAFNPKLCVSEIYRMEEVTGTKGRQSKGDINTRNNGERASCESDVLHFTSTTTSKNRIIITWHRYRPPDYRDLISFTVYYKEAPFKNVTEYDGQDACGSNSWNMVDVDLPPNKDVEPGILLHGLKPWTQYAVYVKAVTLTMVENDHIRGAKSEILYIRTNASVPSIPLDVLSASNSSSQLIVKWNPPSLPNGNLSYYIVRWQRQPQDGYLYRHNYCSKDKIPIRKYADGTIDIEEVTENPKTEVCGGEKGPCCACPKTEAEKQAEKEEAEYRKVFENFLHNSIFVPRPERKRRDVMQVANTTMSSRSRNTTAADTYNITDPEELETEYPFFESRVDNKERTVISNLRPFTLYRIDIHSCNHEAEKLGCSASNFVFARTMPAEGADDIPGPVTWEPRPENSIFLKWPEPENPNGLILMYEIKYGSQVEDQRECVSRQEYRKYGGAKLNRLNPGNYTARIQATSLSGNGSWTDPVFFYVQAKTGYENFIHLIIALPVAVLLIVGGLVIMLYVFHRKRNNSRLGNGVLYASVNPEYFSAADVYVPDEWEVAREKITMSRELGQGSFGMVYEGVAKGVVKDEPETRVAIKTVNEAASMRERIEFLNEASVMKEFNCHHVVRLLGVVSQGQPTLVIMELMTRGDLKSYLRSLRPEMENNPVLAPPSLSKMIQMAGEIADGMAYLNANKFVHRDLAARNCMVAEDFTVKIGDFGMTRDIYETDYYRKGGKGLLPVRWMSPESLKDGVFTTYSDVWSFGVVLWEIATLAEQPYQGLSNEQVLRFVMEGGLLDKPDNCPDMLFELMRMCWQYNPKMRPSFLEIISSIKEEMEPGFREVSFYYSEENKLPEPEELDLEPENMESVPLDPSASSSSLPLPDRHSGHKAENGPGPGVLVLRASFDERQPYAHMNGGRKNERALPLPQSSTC
T1 sequence (P00533 25-1210, species assumed): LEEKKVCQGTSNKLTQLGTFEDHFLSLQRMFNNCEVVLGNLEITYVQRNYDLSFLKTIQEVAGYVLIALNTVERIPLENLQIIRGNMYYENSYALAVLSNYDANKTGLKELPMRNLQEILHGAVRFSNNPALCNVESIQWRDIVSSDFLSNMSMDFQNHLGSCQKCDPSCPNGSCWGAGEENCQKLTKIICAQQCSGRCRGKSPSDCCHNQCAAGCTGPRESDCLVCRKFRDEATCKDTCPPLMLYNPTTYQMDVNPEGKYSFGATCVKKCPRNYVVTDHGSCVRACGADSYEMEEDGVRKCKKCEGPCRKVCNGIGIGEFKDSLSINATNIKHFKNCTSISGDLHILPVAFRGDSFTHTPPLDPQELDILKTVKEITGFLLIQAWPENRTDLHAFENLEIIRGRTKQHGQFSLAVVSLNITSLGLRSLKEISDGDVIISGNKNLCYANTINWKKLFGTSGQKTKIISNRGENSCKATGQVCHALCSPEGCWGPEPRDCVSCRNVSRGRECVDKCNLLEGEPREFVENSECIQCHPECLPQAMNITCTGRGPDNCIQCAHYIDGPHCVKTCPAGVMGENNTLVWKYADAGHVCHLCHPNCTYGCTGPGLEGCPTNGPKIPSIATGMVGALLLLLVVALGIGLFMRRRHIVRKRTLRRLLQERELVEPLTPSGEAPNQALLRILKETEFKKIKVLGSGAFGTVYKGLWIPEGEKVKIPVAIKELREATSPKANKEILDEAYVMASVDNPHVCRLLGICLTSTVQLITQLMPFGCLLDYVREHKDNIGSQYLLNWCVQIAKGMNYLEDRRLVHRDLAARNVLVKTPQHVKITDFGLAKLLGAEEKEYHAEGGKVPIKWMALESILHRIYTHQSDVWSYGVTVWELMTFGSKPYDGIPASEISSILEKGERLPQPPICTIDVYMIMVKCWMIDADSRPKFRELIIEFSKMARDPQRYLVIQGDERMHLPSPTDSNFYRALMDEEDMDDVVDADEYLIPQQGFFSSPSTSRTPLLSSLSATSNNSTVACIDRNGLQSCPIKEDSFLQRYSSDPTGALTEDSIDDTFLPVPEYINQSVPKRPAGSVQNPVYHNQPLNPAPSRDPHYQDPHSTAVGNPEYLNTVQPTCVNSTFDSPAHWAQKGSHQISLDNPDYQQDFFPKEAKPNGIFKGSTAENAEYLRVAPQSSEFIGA
T9 sequence (P08581 25-1390): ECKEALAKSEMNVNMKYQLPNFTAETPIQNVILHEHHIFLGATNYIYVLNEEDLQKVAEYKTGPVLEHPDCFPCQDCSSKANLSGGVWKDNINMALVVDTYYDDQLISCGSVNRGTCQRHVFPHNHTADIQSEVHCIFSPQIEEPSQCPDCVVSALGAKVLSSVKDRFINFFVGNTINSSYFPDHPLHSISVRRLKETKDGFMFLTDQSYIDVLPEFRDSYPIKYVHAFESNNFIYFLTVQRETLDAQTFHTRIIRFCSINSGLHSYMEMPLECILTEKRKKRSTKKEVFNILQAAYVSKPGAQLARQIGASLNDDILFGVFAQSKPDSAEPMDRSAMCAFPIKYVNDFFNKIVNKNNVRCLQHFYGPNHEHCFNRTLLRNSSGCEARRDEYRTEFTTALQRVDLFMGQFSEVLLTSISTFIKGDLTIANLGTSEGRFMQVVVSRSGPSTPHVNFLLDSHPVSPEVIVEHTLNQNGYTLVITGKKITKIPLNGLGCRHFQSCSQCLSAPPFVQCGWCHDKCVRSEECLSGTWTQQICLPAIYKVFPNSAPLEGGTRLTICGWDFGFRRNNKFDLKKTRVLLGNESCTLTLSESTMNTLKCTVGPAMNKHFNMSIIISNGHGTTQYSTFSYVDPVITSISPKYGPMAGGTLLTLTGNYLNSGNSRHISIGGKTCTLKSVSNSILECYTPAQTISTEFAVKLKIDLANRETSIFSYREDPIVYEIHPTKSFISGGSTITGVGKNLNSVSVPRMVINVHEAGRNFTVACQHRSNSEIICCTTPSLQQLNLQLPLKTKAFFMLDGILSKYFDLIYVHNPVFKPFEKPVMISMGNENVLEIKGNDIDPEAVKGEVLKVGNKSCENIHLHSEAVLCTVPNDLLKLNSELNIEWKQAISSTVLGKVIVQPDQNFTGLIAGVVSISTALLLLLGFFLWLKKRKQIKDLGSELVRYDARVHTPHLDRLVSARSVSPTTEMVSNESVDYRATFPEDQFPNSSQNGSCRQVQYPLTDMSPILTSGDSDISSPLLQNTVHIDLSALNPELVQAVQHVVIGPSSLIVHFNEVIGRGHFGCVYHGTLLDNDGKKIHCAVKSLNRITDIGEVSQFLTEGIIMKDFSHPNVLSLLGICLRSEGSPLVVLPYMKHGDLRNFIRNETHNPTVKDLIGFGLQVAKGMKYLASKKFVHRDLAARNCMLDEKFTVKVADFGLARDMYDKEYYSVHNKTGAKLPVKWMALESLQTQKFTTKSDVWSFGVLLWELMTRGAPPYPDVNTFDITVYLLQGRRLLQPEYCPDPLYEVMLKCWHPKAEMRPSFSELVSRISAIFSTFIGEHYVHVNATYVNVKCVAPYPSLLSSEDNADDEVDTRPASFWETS
T6 sequence (P06239 whole entry, species assumed, the tested form may be a part): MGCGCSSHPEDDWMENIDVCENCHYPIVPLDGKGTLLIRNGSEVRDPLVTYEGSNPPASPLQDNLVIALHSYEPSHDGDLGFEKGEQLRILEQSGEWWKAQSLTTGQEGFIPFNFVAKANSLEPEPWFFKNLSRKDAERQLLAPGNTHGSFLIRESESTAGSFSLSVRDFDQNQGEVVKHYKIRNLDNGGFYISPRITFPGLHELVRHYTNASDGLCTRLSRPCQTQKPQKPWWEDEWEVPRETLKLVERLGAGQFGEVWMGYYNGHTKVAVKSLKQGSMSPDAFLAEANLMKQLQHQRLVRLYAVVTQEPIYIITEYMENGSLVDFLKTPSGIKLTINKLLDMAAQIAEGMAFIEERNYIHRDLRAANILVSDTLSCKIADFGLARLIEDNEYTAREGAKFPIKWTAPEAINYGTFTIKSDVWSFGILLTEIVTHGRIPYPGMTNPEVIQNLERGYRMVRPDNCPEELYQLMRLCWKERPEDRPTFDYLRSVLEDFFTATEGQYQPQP

SMILES | IC50 [1] | IC50 [2] | IC50 [3] | IC50 [4] | IC50 ([5]; read-out: KDR-1) | IC50 [6] | IC50 [7] | IC50 [8] | IC50 [9] | IC50 [10] | IC50 ([5]; KDR-1)
CCN(c1ccccc1)c1ncnc(Nc2cc(OC)c(OC)c(OC)c2)n1 [Compound 536] | < 1.05 µM | > 11.8 µM | 1.05 to 6.29 µM | > 11.8 µM | < 1.05 µM | 1.05 to 6.29 µM | 1.05 to 6.29 µM | 1.05 to 6.29 µM | < 1.05 µM | > 11.8 µM | –
COc1cc(Nc2ncnc(-n3c(NCc4nccs4)nc4ccccc43)n2)cc(OC)c1OC [Compound 549] | 4.89 to 7.13 µM | > 9.17 µM | > 9.17 µM | > 9.17 µM | < 0.815 µM | 0.815 to 4.89 µM | 0.815 to 4.89 µM | < 0.815 µM | > 9.17 µM | > 9.17 µM | –
COc1cc(Nc2ncnc(-n3c(Nc4ccc(OC(F)(F)F)cc4)nc4ccccc43)n2)cc(OC)c1OC [Compound 1050] | 4.34 to 6.32 µM | > 8.13 µM | > 8.13 µM | > 8.13 µM | 0.723 to 4.34 µM | > 8.13 µM | 4.34 to 6.32 µM | 0.723 to 4.34 µM | 4.34 to 6.32 µM | > 8.13 µM | –
COc1cc(Nc2ncnc(N(C)c3cccc(Cl)c3)n2)cc(OC)c1 [Compound 712] | < 1.08 µM | > 12.1 µM | > 12.1 µM | > 12.1 µM | 1.08 to 6.45 µM | 1.08 to 6.45 µM | < 1.08 µM | 1.08 to 6.45 µM | 1.08 to 6.45 µM | > 12.1 µM | –
CCN(CC)CCNc1ncnc(N(C)c2cccc(Cl)c2)n1 [Compound 745] | 1.19 to 7.17 µM | > 13.4 µM | > 13.4 µM | > 13.4 µM | > 13.4 µM | > 13.4 µM | > 13.4 µM | > 13.4 µM | > 13.4 µM | > 13.4 µM | –
COc1cc(Nc2ncnc(-c3cccnc3Nc3cccc(C(N)=O)c3)n2)cc(OC)c1OC [Compound 1090] | > 9.5 µM | > 9.5 µM | 7.39 to 9.5 µM | > 9.5 µM | < 0.845 µM | < 0.845 µM | > 9.5 µM | < 0.845 µM | 7.39 to 9.5 µM | > 9.5 µM | –
CN(c1cccc(Cl)c1)c1ncnc(Nc2cccc(Br)c2)n1 [Compound 707] | < 1.02 µM | > 11.5 µM | > 11.5 µM | > 11.5 µM | > 11.5 µM | > 11.5 µM | > 11.5 µM | > 11.5 µM | > 11.5 µM | > 11.5 µM | –
Cc1cccc(Nc2ncnc(Nc3ccc4c(cnn4Cc4ccccc4)c3)n2)c1 [Compound 553] | < 0.982 µM | 5.89 to 8.59 µM | 8.59 to 11 µM | 8.59 to 11 µM | 0.982 to 5.89 µM | > 11 µM | 0.982 to 5.89 µM | 0.982 to 5.89 µM | 0.982 to 5.89 µM | 5.89 to 8.59 µM | –
COc1cc(Nc2ncnc(NCc3ccccc3)n2)cc(OC)c1OC [Compound 630] | < 1.09 µM | > 12.2 µM | 9.53 to 12.2 µM | > 12.2 µM | 6.53 to 9.53 µM | 1.09 to 6.53 µM | 6.53 to 9.53 µM | 1.09 to 6.53 µM | > 12.2 µM | > 12.2 µM | –
NC(=O)Cc1cccc(Nc2ncnc(Nc3cc(-c4ccccc4)n[nH]3)n2)c1 [Compound 578] | < 1.04 µM | > 11.6 µM | < 1.04 µM | < 1.04 µM | < 1.04 µM | < 1.04 µM | 1.04 to 6.21 µM | 1.04 to 6.21 µM | < 1.04 µM | > 11.6 µM | –
COc1cc(Nc2ncnc(-n3c(NCc4ccc(O)cc4)nc4ccccc43)n2)cc(OC)c1OC [Compound 561] | > 9.01 µM | > 9.01 µM | > 9.01 µM | > 9.01 µM | – | < 0.801 µM | > 9.01 µM | < 0.801 µM | > 9.01 µM | > 9.01 µM | < 0.801 µM
COc1cc(Nc2ncnc(Nc3ccc4nn(C)cc4c3)n2)cc(OC)c1OC [Compound 556] | 0.982 to 5.89 µM | > 11 µM | < 0.982 µM | 0.982 to 5.89 µM | 0.982 to 5.89 µM | < 0.982 µM | < 0.982 µM | < 0.982 µM | > 11 µM | > 11 µM | –
Cc1ccc2c(c1)CCCN2c1ncnc(NCc2ccccn2)n1 [Compound 769] | > 13.5 µM | > 13.5 µM | > 13.5 µM | > 13.5 µM | > 13.5 µM | > 13.5 µM | > 13.5 µM | > 13.5 µM | > 13.5 µM | > 13.5 µM | –
CN(c1cccc(Cl)c1)c1ncnc(Nc2ccc3cn[nH]c3c2)n1 [Compound 718] | < 1.14 µM | 9.95 to 12.8 µM | > 12.8 µM | > 12.8 µM | > 12.8 µM | > 12.8 µM | > 12.8 µM | 6.82 to 9.95 µM | > 12.8 µM | 9.95 to 12.8 µM | –

Further lines, with some results ahead:

IC50 [1] | IC50 [2] | IC50 [3] | IC50 [4] | IC50 ([5]; read-out: KDR-1) | IC50 [6] | IC50 [7] | IC50 [8] | IC50 [9] | IC50 [10] | SMILES | IC50 ([5]; KDR-1)
< 0.919 µM | 5.51 to 8.04 µM | 0.919 to 5.51 µM | 0.919 to 5.51 µM | 0.919 to 5.51 µM | 5.51 to 8.04 µM | 0.919 to 5.51 µM | 0.919 to 5.51 µM | 0.919 to 5.51 µM | 0.919 to 5.51 µM | CC(=O)c1ccc(Nc2ncnc(Nc3ccc4c(cnn4Cc4ccccc4)c3)n2)cc1 [Compound 730] | –
> 7.78 µM | > 7.78 µM | > 7.78 µM | > 7.78 µM | 0.692 to 4.15 µM | > 7.78 µM | 4.15 to 6.05 µM | 4.15 to 6.05 µM | > 7.78 µM | > 7.78 µM | COc1cc(Br)ccc1Nc1nc2ccccc2n1-c1ncnc(Nc2cc(OC)c(OC)c(OC)c2)n1 [Compound 1052] | –
> 8.53 µM | > 8.53 µM | > 8.53 µM | > 8.53 µM | 0.758 to 4.55 µM | 0.758 to 4.55 µM | > 8.53 µM | 0.758 to 4.55 µM | > 8.53 µM | > 8.53 µM | COc1ccc([C@@H](C)Nc2nc3ccccc3n2-c2ncnc(Nc3cc(OC)c(OC)c(OC)c3)n2)cc1 [Compound 1045] | –
> 12.5 µM | > 12.5 µM | < 1.11 µM | 1.11 to 6.66 µM | < 1.11 µM | 1.11 to 6.66 µM | 1.11 to 6.66 µM | 1.11 to 6.66 µM | 1.11 to 6.66 µM | > 12.5 µM | NC(=O)Cc1cccc(Nc2ncnc(-n3c(N)nc4ccccc43)n2)c1 [Compound 955] | –
< 0.95 µM | 8.31 to 10.7 µM | 5.7 to 8.31 µM | 8.31 to 10.7 µM | 0.95 to 5.7 µM | 8.31 to 10.7 µM | 0.95 to 5.7 µM | 8.31 to 10.7 µM | 8.31 to 10.7 µM | 0.95 to 5.7 µM | Brc1cccc(Nc2ncnc(Nc3cccc(Br)c3)n2)c1 [Compound 539] | –
> 11.3 µM | > 11.3 µM | > 11.3 µM | > 11.3 µM | > 11.3 µM | > 11.3 µM | > 11.3 µM | > 11.3 µM | > 11.3 µM | > 11.3 µM | CCOC(=O)N1CCC(Nc2ncnc(N3CCCc4cc(C)ccc43)n2)CC1 [Compound 765] | –
